The compounds below were run on 168753-222-R-J1-PDC complex spheroid viability (assay: Anticancer human tumor 168753-222-R-J1-PDC patient-derived bladder carcinoma cell line growth inhibition [CLK]). Details: second compound 0.316 µM; first compound 0.1 µM; stronger effect = lower value.
Procedure, shortened: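 Patient-derived tumor cells grown as complex spheroids with HUVEC endothelial cells and mesenchymal stem cells, treated with drug combinations. Concentrations descend in half-log steps from near clinical Cmax, or from 10 microM if Cmax unknown.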
Work on O=c1[nH]cc(F)c(=O)[nH]1 + CNC(=O)c1ccc(Nc2nc(OC3CCCC3)c3c(-c4ccc5nc(C)oc5c4)c[nH]c3n2)c(OC)c1 yielded a viability, T/C of 77.3%.

Same assay, conditions: second compound 0.316 µM; first compound 0.316 µM; stronger effect = lower value
CCc1c2c(nc3ccc(O)cc13)-c1cc3c(c(=O)n1C2)COC(=O)[C@]3(O)CC + CNC(=O)c1ccc(Nc2nc(OC3CCCC3)c3c(-c4ccc5nc(C)oc5c4)c[nH]c3n2)c(OC)c1 was tested, and the viability, T/C was 24.6%.
With Nc1ccn(C2OC(CO)C(O)C2(F)F)c(=O)n1 (stereo unspecified) + CNC(=O)c1ccc(Nc2nc(OC3CCCC3)c3c(-c4ccc5nc(C)oc5c4)c[nH]c3n2)c(OC)c1 the viability, T/C was 28%.
O=C(c1cc(Cc2n[nH]c(=O)c3ccccc23)ccc1F)N1CCN(C(=O)C2CC2)CC1 + CNC(=O)c1ccc(Nc2nc(OC3CCCC3)c3c(-c4ccc5nc(C)oc5c4)c[nH]c3n2)c(OC)c1 showed a viability, T/C of 68.2%.
O=c1[nH]cc(F)c(=O)[nH]1 + CNC(=O)c1ccc(Nc2nc(OC3CCCC3)c3c(-c4ccc5nc(C)oc5c4)c[nH]c3n2)c(OC)c1 showed a viability, T/C of 66.5%.

Same assay, conditions: second compound 0.316 µM; first compound 1 µM; stronger effect = lower value
For CCc1c2c(nc3ccc(O)cc13)-c1cc3c(c(=O)n1C2)COC(=O)[C@]3(O)CC + CNC(=O)c1ccc(Nc2nc(OC3CCCC3)c3c(-c4ccc5nc(C)oc5c4)c[nH]c3n2)c(OC)c1, the viability, T/C was 8.79%.
For Nc1ccn(C2OC(CO)C(O)C2(F)F)c(=O)n1 (stereo unspecified) + CNC(=O)c1ccc(Nc2nc(OC3CCCC3)c3c(-c4ccc5nc(C)oc5c4)c[nH]c3n2)c(OC)c1, the viability, T/C was 17.1%.
For O=C(c1cc(Cc2n[nH]c(=O)c3ccccc23)ccc1F)N1CCN(C(=O)C2CC2)CC1 + CNC(=O)c1ccc(Nc2nc(OC3CCCC3)c3c(-c4ccc5nc(C)oc5c4)c[nH]c3n2)c(OC)c1, the viability, T/C was 63.6%.
O=c1[nH]cc(F)c(=O)[nH]1 + CNC(=O)c1ccc(Nc2nc(OC3CCCC3)c3c(-c4ccc5nc(C)oc5c4)c[nH]c3n2)c(OC)c1 was tested, and the viability, T/C was 73.4%.

Same assay, conditions: second compound 0.316 µM; first compound 3.16 µM; stronger effect = lower value
For Nc1ccn(C2OC(CO)C(O)C2(F)F)c(=O)n1 (stereo unspecified) + CNC(=O)c1ccc(Nc2nc(OC3CCCC3)c3c(-c4ccc5nc(C)oc5c4)c[nH]c3n2)c(OC)c1, the viability, T/C was 26.8%.
O=C(c1cc(Cc2n[nH]c(=O)c3ccccc23)ccc1F)N1CCN(C(=O)C2CC2)CC1 + CNC(=O)c1ccc(Nc2nc(OC3CCCC3)c3c(-c4ccc5nc(C)oc5c4)c[nH]c3n2)c(OC)c1 was tested, and the viability, T/C was 84.8%.
Work on O=c1[nH]cc(F)c(=O)[nH]1 + CNC(=O)c1ccc(Nc2nc(OC3CCCC3)c3c(-c4ccc5nc(C)oc5c4)c[nH]c3n2)c(OC)c1 yielded a viability, T/C of 68.8%.

Same assay, conditions: second compound 0.316 µM; first compound 10 µM; stronger effect = lower value
Compound Nc1ccn(C2OC(CO)C(O)C2(F)F)c(=O)n1 (stereo unspecified) + CNC(=O)c1ccc(Nc2nc(OC3CCCC3)c3c(-c4ccc5nc(C)oc5c4)c[nH]c3n2)c(OC)c1 has a viability, T/C of 22.1%.
Work on O=C(c1cc(Cc2n[nH]c(=O)c3ccccc23)ccc1F)N1CCN(C(=O)C2CC2)CC1 + CNC(=O)c1ccc(Nc2nc(OC3CCCC3)c3c(-c4ccc5nc(C)oc5c4)c[nH]c3n2)c(OC)c1 yielded a viability, T/C of 70.4%.
In the case of O=c1[nH]cc(F)c(=O)[nH]1 + CNC(=O)c1ccc(Nc2nc(OC3CCCC3)c3c(-c4ccc5nc(C)oc5c4)c[nH]c3n2)c(OC)c1, the viability, T/C is reported as 67%.

Same assay, conditions: second compound 1 µM; first compound 0.000316 µM; stronger effect = lower value
With Cn1ncnc1[C@H]1c2n[nH]c(=O)c3cc(F)cc(c23)N[C@@H]1c1ccc(F)cc1 + CNC(=O)c1ccc(Nc2nc(OC3CCCC3)c3c(-c4ccc5nc(C)oc5c4)c[nH]c3n2)c(OC)c1 the viability, T/C was 33.9%.

Same assay, conditions: second compound 1 µM; first compound 0.001 µM; stronger effect = lower value
Cn1ncnc1[C@H]1c2n[nH]c(=O)c3cc(F)cc(c23)N[C@@H]1c1ccc(F)cc1 + CNC(=O)c1ccc(Nc2nc(OC3CCCC3)c3c(-c4ccc5nc(C)oc5c4)c[nH]c3n2)c(OC)c1 showed a viability, T/C of 32%.

Same assay, conditions: second compound 1 µM; first compound 0.00316 µM; stronger effect = lower value
With CCc1c2c(nc3ccc(O)cc13)-c1cc3c(c(=O)n1C2)COC(=O)[C@]3(O)CC + CNC(=O)c1ccc(Nc2nc(OC3CCCC3)c3c(-c4ccc5nc(C)oc5c4)c[nH]c3n2)c(OC)c1 the viability, T/C was 35.1%.
Cn1ncnc1[C@H]1c2n[nH]c(=O)c3cc(F)cc(c23)N[C@@H]1c1ccc(F)cc1 + CNC(=O)c1ccc(Nc2nc(OC3CCCC3)c3c(-c4ccc5nc(C)oc5c4)c[nH]c3n2)c(OC)c1 was tested, and the viability, T/C was 30.6%.

Same assay, conditions: second compound 1 µM; first compound 0.01 µM; stronger effect = lower value
CCc1c2c(nc3ccc(O)cc13)-c1cc3c(c(=O)n1C2)COC(=O)[C@]3(O)CC + CNC(=O)c1ccc(Nc2nc(OC3CCCC3)c3c(-c4ccc5nc(C)oc5c4)c[nH]c3n2)c(OC)c1 gave a viability, T/C of 29.9%.
Cn1ncnc1[C@H]1c2n[nH]c(=O)c3cc(F)cc(c23)N[C@@H]1c1ccc(F)cc1 + CNC(=O)c1ccc(Nc2nc(OC3CCCC3)c3c(-c4ccc5nc(C)oc5c4)c[nH]c3n2)c(OC)c1 gave a viability, T/C of 28%.

Same assay, conditions: second compound 1 µM; first compound 0.0316 µM; stronger effect = lower value
In the case of CCc1c2c(nc3ccc(O)cc13)-c1cc3c(c(=O)n1C2)COC(=O)[C@]3(O)CC + CNC(=O)c1ccc(Nc2nc(OC3CCCC3)c3c(-c4ccc5nc(C)oc5c4)c[nH]c3n2)c(OC)c1, the viability, T/C is reported as 17.4%.
In the case of Cn1ncnc1[C@H]1c2n[nH]c(=O)c3cc(F)cc(c23)N[C@@H]1c1ccc(F)cc1 + CNC(=O)c1ccc(Nc2nc(OC3CCCC3)c3c(-c4ccc5nc(C)oc5c4)c[nH]c3n2)c(OC)c1, the viability, T/C is reported as 31.9%.
Nc1ccn(C2OC(CO)C(O)C2(F)F)c(=O)n1 (stereo unspecified) + CNC(=O)c1ccc(Nc2nc(OC3CCCC3)c3c(-c4ccc5nc(C)oc5c4)c[nH]c3n2)c(OC)c1 gave a viability, T/C of 43.5%.
With O=C(c1cc(Cc2n[nH]c(=O)c3ccccc23)ccc1F)N1CCN(C(=O)C2CC2)CC1 + CNC(=O)c1ccc(Nc2nc(OC3CCCC3)c3c(-c4ccc5nc(C)oc5c4)c[nH]c3n2)c(OC)c1 the viability, T/C was 39.7%.
O=c1[nH]cc(F)c(=O)[nH]1 + CNC(=O)c1ccc(Nc2nc(OC3CCCC3)c3c(-c4ccc5nc(C)oc5c4)c[nH]c3n2)c(OC)c1 gave a viability, T/C of 42.1%.

From PubChem BioAssay AID2060626 (Molecular Pharmacology Branch, DTP, NCI, 2025)
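Also: luminescence signal used as surrogate for viable cell amount; viability measured after seven days of drug exposure; 100% = DMSO vehicle control wells.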
